Key:
mTor = molecular target: T1, mTor (Homo sapiens, UniProt P42345); assay: In vitro kinase inhibition, mTor (Millipore/Merck kinases panel screening); type: biochemical; details: compound at 0.03 μM; scaffold drawing 7 series
T1 construct: purchased Millipore/Merck KGA
Method: (§1) In vitro kinase inhibition activities included Pi3k and mTor activities can be tested with Millipore/Merck KGA of Europe in their kinases panel screening. Animal antitumor activity testing can be conducted by various cancer xenograft models for a compound of formula I.
(§2) The following compounds or a pharmaceutically acceptable salt thereof, but not limited, can also be prepared similarly according to the methods described in Scheme I-Scheme II. They are also tested for the inhibitions on mTor or pi3k kinases, or tumor cell lines.

pi3K = assay: In vitro kinase inhibition, pi3K (Millipore/Merck kinases panel screening); type: biochemical; details: compound at 0.03 μM; scaffold drawing 7 series
Method: as §1, §2

activity at 0.03 µM (mTor) [%] | pi3K % activity @0.03 μM (pi3K) [%] | Molecule | mTor % activity @0.03 μM (mTor) [%]
31 | 95 | O=C(CN1CCOCC1)Nc1ccc(-c2ccc3ncc4c(c3c2)n(-c2cccc(C(F)(F)F)c2)c2nncn42)cn1 [2-(morpholin-4-yl)-N-(5-{16-[3-(trifluoromethyl)phenyl]-8,11,13,14,16-pentaazatetracyclo-[8.6.0.0^2,7.0^11,15]hexadeca-1(10),2,4,6,8,12,14-heptaen-4-yl}pyridin-2-yl)acetamide] | 
20 | 93 | FC(F)(F)c1cc(-n2c3c4cc(-c5ccc(NCCN6CCOCC6)nc5)ccc4ncc3n3cnnc23)ccc1Cl [5-{16-[4-chloro-3-(trifluoromethyl)phenyl]-8,11,13,14,16-pentaazatetracyclo[8.6.0.0^2,7.0^11,15]-hexadeca-1(10),2,4,6,8,12,14-heptaen-4-yl}-N-[2-(morpholin-4-yl)ethyl]pyridin-2-amine] | 
0 | 70 | FC(F)(F)c1cccc(-n2c3c4cc(-c5cccnc5)ccc4ncc3n3cnnc23)c1 [3-pyridine, H, H, 16-(3-(trifluoromethyl)phenyl)-4-(pyridin-3-yl)-8,11,13,14,16-pentaazatetracyclo-[8.6.0.0^2,7.0^11,15]hexadeca-1(10),2,4,6,8,12,14-heptaene] | 
19 | 77 | FC(F)(F)c1cc(-n2c3c4cc(-c5cccnc5)ccc4ncc3n3cnnc23)ccc1Cl [3-pyridine, 4-Cl, H, 16-[4-chloro-3-(trifluoromethyl)phenyl]-4-(pyridin-3-yl)-8,11,13,14,16-pentaazatetracyclo-[8.6.0.0^2,7.0^11,15]hexadeca-1(10),2,4,6,8,12,14-heptaene] | 
-4 | 82 | OCCNc1ccc(-c2ccc3ncc4c(c3c2)n(-c2ccc(Cl)c(C(F)(F)F)c2)c2nncn42)cn1 [2-[(5-{16-[4-chloro-3-(trifluoromethyl)phenyl]-8,11,13,14,16-pentaazatetracyclo-[8.6.0.0^2,7.0^11,15]-hexadeca-1(10),2,4,6,8,12,14-heptaen-4-yl}pyridin-2-yl)amino]ethanol] | 
17 | 82 | O=C(CN1CCOCC1)Nc1ccc(-c2ccc3ncc4c(c3c2)n(-c2ccc(Cl)c(C(F)(F)F)c2)c2nncn42)cn1 [N-(5-{16-[4-chloro-3-(trifluoromethyl)phenyl]-8,11,13,14,16-pentaazatetracyclo[8.6.0.0^2,7.0^11,15]-hexadeca-1(10),2,4,6,8,12,14-heptaen-4-yl}pyridin-2-yl)-2-(morpholin-4-yl)acetamide] | 

Molecule | activity at 0.03 µM (mTor) [%] | pi3K % activity @0.03 μM (pi3K) [%] | mTor % activity @0.03 μM (mTor) [%]
N-[2-(morpholin-4-yl)ethyl]-5-{16-[3-(trifluoromethyl)phenyl]-8,11,13,14,16-pentaazatetra-cyclo[8.6.0.0^2,7.0^11,15]hexadeca-1(10),2,4,6,8,12,14-heptaen-4-yl}pyridin-2-amine |  | 94 | 43
2-[(5-{16-[3-(trifluoromethyl)phenyl]-8,11,13,14,16-pentaazatetracyclo-[8.6.0.0^2,7.0^11,15]-hexadeca-1(10),2,4,6,8,12,14-heptaen-4-yl}pyridin-2-yl-amino]ethan-1-ol |  | 96 | 8
